Measured values: patent publication US20150072995A1, “TREATMENT OF MALE SEXUAL DYSFUNCTION” (Ixchelsis Limited, priority 2002, published 2015)
Read-outs that look alike come from different tables or passages of the source. Each block holds one compound with its values, some of them ahead of it.

What was measured:
experienced male rats = conditions: ICV injection, Argiolas et al 1988; cited from earlier work
rat [1] = conditions: cited from earlier work
rat [2] = conditions: 100 ng/rat icv; cited from earlier work
[3] = test system: sexually-experienced rats; assay: Male sexual behaviour model (copulatory behaviour with receptive female); assay type: in vivo, rat
Protocol: For all the sexual behaviour tests, the male rats were placed in an observation arena (50-60 cm diameter), starting 5 hours into the dark cycle and observed under red illumination. Three to four minutes after placing the male in the arena, a receptive female (ovariectomised, oestradiol benzoate/progesterone injection 48 hour before behavioural study) was introduced into the arena and the following parameters noted: • i) ejaculatory latency (EJL; time taken from addition of receptive female into the arena to ejaculation); • ii) copulatory efficiency (CE; ejaculatory latency/the number of intromissions to ejaculation, i.e. the number of seconds between intromissions); • iii) intromission frequency (IF; the number of intromissions to ejaculation); • iv) mount frequency (MF; the number of mounts to ejaculation); • v) post ejaculatory interval (PEI; the time taken from ejaculation to the commencement of copulatory behaviour).

human volunteers = conditions: cited from earlier work
rats = conditions: cited from earlier work
male animals = conditions: cited from earlier work
[4] = test system: rats, rabbits and monkeys; conditions: cited from earlier work
anaesthetised rats [5] = assay: Penile erection and p-chloroamphetamine (PCA)-induced ejaculation test in anaesthetised rats; assay type: in vivo, rat
CNS penetration = conditions: in vivo
anaesthetised rats [6] = assay: Splanchnic nerve-stimulated seminal vesicle pressure in anaesthetised rats; assay type: in vivo, rat
Description: Seminal vesicle contraction is essential for emission and the seminal fluid delivered into the prostatic urethra is thought to trigger ejaculation. Oxytocin has direct contractile effects on mammalian seminal vesicles and may additionally have a neuromodulator role influencing sympathetic innervation during ejaculation. In this study seminal vesicle contraction was reduced by 41% after a 1 mgkg^−1 bolus injection (see FIG. 2 below).

[7] = molecular target: T1, Human cloned vasopressin V1a receptor in CHO cells (Homo sapiens, UniProt P37288); assay: Vasopressin V1a receptor binding assay (3H-AVP, filtration); conditions: printed as [6.3 nM OT: 148 nM V1a]; read-out: V1a (vasopressin V1a receptor affinity)
T1 construct: expressed in transfected cells; host or cells: CHO cells (membrane preparation)
T1 sequence (P37288 whole entry): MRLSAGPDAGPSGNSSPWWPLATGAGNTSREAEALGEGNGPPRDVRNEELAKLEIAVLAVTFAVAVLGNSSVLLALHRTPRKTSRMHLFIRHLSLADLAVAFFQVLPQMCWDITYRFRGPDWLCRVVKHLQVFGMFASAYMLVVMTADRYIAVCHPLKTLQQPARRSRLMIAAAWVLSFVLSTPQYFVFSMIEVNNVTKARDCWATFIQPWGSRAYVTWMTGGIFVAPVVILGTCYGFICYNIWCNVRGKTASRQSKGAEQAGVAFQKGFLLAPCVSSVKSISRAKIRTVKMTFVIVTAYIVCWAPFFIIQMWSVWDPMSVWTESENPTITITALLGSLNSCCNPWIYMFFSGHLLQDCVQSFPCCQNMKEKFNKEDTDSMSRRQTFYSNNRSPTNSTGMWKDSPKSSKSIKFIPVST
Protocol: B. Vasopressin VIA Receptor Binding Assay
iii) Membrane Preparation • Frozen cell pellets are retrieved from the freezer and thawed gently on ice. • 3 ml of membrane prep buffer per ml of original packed cell volume is • added and the suspension homogenised with a polytron for several bursts • of 5 seconds on ice until well dispersed before centrifuging at 1000 rpm for 10 mins • The supernatant is removed and stored on ice. A further 3 ml of membrane prep buffer per ml of original packed cell volume is added to the pellet, homogenised on ice and then centrifuged at 1000 rpm for 10 mins • The supernatant is removed, added to the previously removed volume of supernatant and then centrifuged at 25,000×g and 4° C. for 30 mins • The 25,000×g pellet is re-suspended by homogenisation in 1 ml of freezing buffer per ml of original packed cell volume and the protein concentration determined […]
Specific binding is calculated as follows: […]

[8] = Free plasma concentration in rats; assay type: in vivo, rat; conditions: for concentration at 30 minutes: rat, plasma, preliminary pharmacokinetic studies
oxytocin receptor = molecular target: T2, oxytocin receptor (Homo sapiens, UniProt P30559); assay: biochemical
T2 sequence (P30559 1-389): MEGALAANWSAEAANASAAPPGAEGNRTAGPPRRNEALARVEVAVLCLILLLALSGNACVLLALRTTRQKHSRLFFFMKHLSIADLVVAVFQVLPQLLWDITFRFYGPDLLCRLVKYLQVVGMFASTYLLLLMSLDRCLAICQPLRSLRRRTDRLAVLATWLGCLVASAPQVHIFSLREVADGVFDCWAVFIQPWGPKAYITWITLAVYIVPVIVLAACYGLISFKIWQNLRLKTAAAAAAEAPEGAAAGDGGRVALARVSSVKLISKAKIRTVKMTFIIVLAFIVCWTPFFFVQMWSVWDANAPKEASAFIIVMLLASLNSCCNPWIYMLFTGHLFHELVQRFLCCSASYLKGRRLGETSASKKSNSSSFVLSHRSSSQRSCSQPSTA
Protocol: • a) HTA stock compounds at 4 mM in 100% DMSO • b) Dilute compounds to 200 μM in dH2O. • c) Further dilute compounds to 100 μM in 100 mM Tris-HCl, pH 7.8, 20 mM MgCl2. […]
• Cell pellets are retrieved from the freezer, thawed on ice and resuspended in 3 ml of membrane prep buffer per ml packed cell volume. • The suspension is then homogenised using a mechanical homogeniser for several bursts of 5 secs on ice before centrifuging at 25,000×g for 30 mins. • After resuspending the pellet in 1 ml of freezing buffer per 1 ml of the original packed cell volume the suspension is briefly homogenised to remove small lumps. Protein concentrations are then measured and the membrane suspension is finally frozen in aliquots at a minimum of 5 mg/ml at −80° C.
• Membranes are thawed on ice before diluting to 1 mg/ml in assay buffer. […] Following a 4 hour incubation at room temperature, the plates are counted using the TopCount NXT for 30 s/well.
For the test compounds, the amount of ligand bound to the receptor is expressed as follows: […]

[9] = infusion into the 3rd ventricle

Compound: d(CH2)5Tyr(Me)-Orn^8-vasotocin
ejaculation (experienced male rats): abolishment
penile erection (experienced male rats): prevent penile erection
sexual performance (experienced male rats): impair
number of non-contact erections (rat [1]; 100 ng/rat icv): reduces
non-contact penile erections (rat [1]; Melis et al 1999, dose not given): significantly reduces
drug-induced erections (rat [2]): abolished
copulatory behaviour ([3]; 50 ng/rat icv): abolished
effect on ejaculatory latency ([3]; doses up to 25 ng/rat icv, previous studies): no effect

Compound: C=CCN1CC[C@]23c4c5ccc(O)c4O[C@H]2C(=O)CC[C@@]3(O)[C@H]1C5 [naloxone]
effect on ejaculation (human volunteers): no effect
serum oxytocin pulse typically observed at ejaculation (human volunteers): eliminated

Compound: CC[C@H](C)[C@@H]1NC(=O)[C@H](Cc2ccc(O)cc2)NC(=O)[C@@H](N)CSSC[C@@H](C(=O)N2CCC[C@H]2C(=O)N[C@@H](CC(C)C)C(=O)NCC(N)=O)NC(=O)[C@H](CC(N)=O)NC(=O)[C@H](CCC(N)=O)NC1=O [oxytocin]
ejaculatory latency (rats; [9]): no effect
latencies to the first mount and intromission (rats; [9]): increased
post ejaculatory refractory periods (rats; [9]): lengthened
ejaculatory latency (rats; intravenous infusion): no effect
number of intromissions made before ejaculation (rats; intravenous infusion): dose dependently reduced
ejaculation latency and post-ejaculation interval (male animals; injected either centrally or peripherally): shortens
penile erections (male animals; injected into specific areas of the brain (periventricular nucleus of the hypothalamus)): facilitates
latency to achieve ejaculation ([4]; central administration): reduce
post-ejaculatory interval ([4]; central administration): shorten
induction of penile erection ([4]; rats, rabbits and monkeys): one of the most potent agents to induce penile erection

CNS penetration (CNS penetration): very poor
Ki [7]: 148 nM
free plasma concentration ([8]; after a 1.0 mgkg^−1 iv injection, based on literature PK and protein plasma binding): approximately 60 nM
free plasma concentration at which ejaculation was delayed 140% ([8]; anaesthetised rats, sc): 5.4 ± 1.5 nM
concentration at 30 minutes ([8]; 30 minutes after 1 mgkg^−1 sc): 4.5 nM
concentration at 30 minutes ([8]; 30 minutes after 10 mgkg^−1 sc): 40 nM
Ki (oxytocin receptor): 6.3 nM
Compound: Cc1ccccc1N1CCN(S(=O)(=O)CC23CCC(C[C@@H]2NC(=O)[C@@H](N)CCS(C)(=O)=O)C3(C)C)CC1 (stereo partly drawn) [L-368,899]
PCA-induced erections resulting in penile cups (anaesthetised rats [5]; 0.1 mg/kg): 98%
PCA-induced erections resulting in penile flares (anaesthetised rats [5]; 0.1 mg/kg): 88%
PCA-induced erections resulting in penile cups (anaesthetised rats [5]; 1.0 mg/kg sc): 95%
PCA-induced erections resulting in penile flares (anaesthetised rats [5]; 1.0 mg/kg sc): 61%
Ejaculation delayed (near maximal effect) (anaesthetised rats [5]; PCA-induced ejaculation, at free plasma concentrations 5.4±1.5 nM): 140%
delay of PCA-induced ejaculation (anaesthetised rats [5]; anaesthetised rats, 0.1-10 mgkg^−1 sc): significantly delayed
splanchnic nerve-stimulated increases in seminal vesicle pressure (anaesthetised rats [6]; 1-3 mgkg^−1 iv): significantly reduced
reduction of seminal vesicle contraction (anaesthetised rats [6]; after a 1 mgkg^−1 bolus injection): 41%
effect on copulatory efficiency ([3]; 50 ng/rat icv): no significant effects
effect on copulatory efficiency ([3]; any of the doses tested, 0.05-10 mgkg^−1 sc): no effects
effect on copulatory behaviour ([3]; doses up to 10 mgkg^−1 sc): no effect
